How the values were obtained:
KRASG12D = target: T1, KRASG12D (Homo sapiens, UniProt P01116, G12D); test: Bio-Biochem-PPI-HTRF Ras-SOS1 interaction assay (KRAS G12D); type: biochemical; conditions: 5 nM
T1 construct: made in house; host or cells: E. coli BL21 (DE3)
How it was run: (§1)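 HTRF measurement of GST-K-Ras (wt or G12D) binding to His-hSOS1, via anti-GST-Eu(K) donor and anti-6His-XL665 acceptor, in HEPES pH 7.4 buffer with NaCl, DTT, BSA and Igepal. Read after ≥10 min; compounds in duplicate from 10 μM down to 0.01 μM. IC50 from 665/620 nm ratio.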

KRASwt = target: T2, KRASwt (Homo sapiens, UniProt P01116); test: Bio-Biochem-PPI-HTRF Ras-SOS1 interaction assay (KRAS wt); type: biochemical; conditions: 5 nM
T2 construct: made in house; host or cells: E. coli BL21 (DE3)
T2 sequence (P01116 1-188 isoform P01116-2): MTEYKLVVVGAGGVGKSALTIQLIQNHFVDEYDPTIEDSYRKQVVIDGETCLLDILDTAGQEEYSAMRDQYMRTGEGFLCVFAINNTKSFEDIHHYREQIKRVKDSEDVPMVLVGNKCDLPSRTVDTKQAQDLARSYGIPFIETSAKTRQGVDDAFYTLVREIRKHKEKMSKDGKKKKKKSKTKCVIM
How it was run: as §1

T1 sequence (P01116 1-188 isoform P01116-2 G12D): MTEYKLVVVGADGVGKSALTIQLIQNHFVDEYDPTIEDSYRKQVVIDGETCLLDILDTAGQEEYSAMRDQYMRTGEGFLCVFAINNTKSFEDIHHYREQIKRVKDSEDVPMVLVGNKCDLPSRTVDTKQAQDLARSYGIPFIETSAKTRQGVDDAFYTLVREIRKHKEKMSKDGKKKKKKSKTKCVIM

SMILES | IC50 (KRASG12D) [µM] | IC50 (KRASwt) [µM]
Cn1nc(C(F)F)cc1C(=O)N1CC2(CCCCN(c3nc(OC[C@@]45CCCN4C[C@H](F)C5)nc4c(F)c(-c5ccc(F)c6sc(N)c(C#N)c56)c(Cl)cc34)C2)C1 [compound 343, 2-amino-4-(6-chloro-4-(2-(3-(difluoromethyl)-1-methyl-1H-pyrazole-5-carbonyl)-2,6-diazaspiro[3.6]decan-6-yl)-8-fluoro-2-(((2R,7aS)-2-fluorotetrahydro-1H-pyrrolizin-7a(5H)-yl)methoxy)quinazolin-7-yl)-7-fluorobenzo[b]thiophene-3-carbonitrile] | < 5 | < 5
C#Cc1c(F)ccc2cc(O)cc(-c3ncc4c(N5CCCC6(CNC6)C5)nc(O[C@@H](C)[C@@H]5CCCN5C)nc4c3F)c12 [compound 152, 5-ethynyl-6-fluoro-4-(8-fluoro-2-((S)-1-((S)-1-methylpyrrolidin-2-yl)ethoxy)-4-(2,6-diazaspiro[3.5]nonan-6-yl)pyrido[4,3-d]pyrimidin-7-yl)naphthalen-2-ol] | ≥ 5 | < 5
N#Cc1c(N)sc2c(F)ccc(-c3c(Cl)cc4c(N5CCCCC6(CN(C(=O)COC(F)(F)C(F)(F)F)C6)C5)nc(OC[C@@]56CCCN5C[C@H](F)C6)nc4c3F)c12 [compound 302, 2-amino-4-(6-chloro-8-fluoro-2-(((2R,7aS)-2-fluorotetrahydro-1H-pyrrolizin-7a(5H)-yl)methoxy)-4-(2-(2-(perfluoroethoxy)acetyl)-2,6-diazaspiro[3.6]decan-6-yl)quinazolin-7-yl)-7-fluorobenzo[b]thiophene-3-carbonitrile] | < 5 | < 5
N#Cc1c(N)sc2c(F)ccc(-c3c(Cl)cc4c(N5CCCCC6(CN(C(=O)[C@@H]7CCOC7)C6)C5)nc(OC[C@@]56CCCN5C[C@H](F)C6)nc4c3F)c12 [compound 230, 2-amino-4-(6-chloro-8-fluoro-2-(((2R,7aS)-2-fluorotetrahydro-1H-pyrrolizin-7a(5H)-yl)methoxy)-4-(2-((R)-tetrahydrofuran-3-carbonyl)-2,6-diazaspiro[3.6]decan-6-yl)quinazolin-7-yl)-7-fluorobenzo[b]thiophene-3-carbonitrile] | < 5 | < 5
Cc1c(N)sc2c(F)ccc(-c3c(Cl)cc4c(N5CCOC6(CN(C(=O)/C(C#N)=C/c7ccoc7)C6)C5)nc(OC[C@@]56CCCN5C[C@H](F)C6)nc4c3F)c12 [compound 348, (E)-2-(8-(7-(2-amino-7-fluoro-3-methylbenzo[b]thiophen-4-yl)-6-chloro-8-fluoro-2-(((2R,7aS)-2-fluorotetrahydro-1H-pyrrolizin-7a(5H)-yl)methoxy)quinazolin-4-yl)-5-oxa-2,8-diazaspiro [3.5]nonane-2-carbonyl)-3-(furan-3-yl) acrylonitrile] | < 5 | < 5
CC(C)=C(C#N)C(=O)N1CC2(C1)CN(c1nc(OC[C@@]34CCCN3C[C@H](F)C4)nc3c(F)c(-c4ccc(F)c5sc(N)c(C#N)c45)c(Cl)cc13)CCO2 [compound 245, 2-amino-4-(6-chloro-4-(2-(2-cyano-3-methylbut-2-enoyl)-5-oxa-2,8-diazaspiro[3.5]nonan-8-yl)-8-fluoro-2-(((2R,7aS)-2-fluorotetrahydro-1H-pyrrolizin-7a(5H)-yl)methoxy)quinazolin-7-yl)-7-fluorobenzo[b]thiophene-3-carbonitrile] | < 5 | < 5
N#Cc1c(N)sc2c(F)ccc(-c3c(Cl)cc4c(N5CCCCC6(CN(C(=O)CC7COC7)C6)C5)nc(OC[C@@]56CCCN5C[C@H](F)C6)nc4c3F)c12 [compound 273, 2-amino-4-(6-chloro-8-fluoro-2-(((2R,7aS)-2-fluorotetrahydro-1H-pyrrolizin-7a(5H)-yl)methoxy)-4-(2-(2-(oxetan-3-yl)acetyl)-2,6-diazaspiro[3.6]decan-6-yl)quinazolin-7-yl)-7-fluorobenzo[b]thiophene-3-carbonitrile] | < 5 | < 5
CC(=O)N1CC2(CCCN(c3nc(OC[C@@]45CCCN4C[C@H](F)C5)nc4c(F)c(-c5ccc(F)c6sc(N)c(C#N)c56)c(Cl)cc34)C2)C1 [compound 169, 4-(4-(2-acetyl-2,6-diazaspiro[3.5]nonan-6-yl)-6-chloro-8-fluoro-2-(((2R,7aS)-2-fluorotetrahydro-1H-pyrrolizin-7a(5H)-yl)methoxy)quinazolin-7-yl)-2-amino-7-fluorobenzo[b]thiophene-3-carbonitrile] | < 5 | < 5
N#CCC(=O)N1CC2(CCCCN(c3nc(OC[C@@]45CCCN4C[C@H](F)C5)nc4c(F)c(-c5ccc(F)c6sc(N)c(C#N)c56)c(Cl)cc34)C2)C1 [compound 194, 2-amino-4-(6-chloro-4-(2-(2-cyanoacetyl)-2,6-diazaspiro[3.6]decan-6-yl)-8-fluoro-2-(((2R,7aS)-2-fluorotetrahydro-1H-pyrrolizin-7a(5H)-yl)methoxy)quinazolin-7-yl)-7-fluorobenzo[b]thiophene-3-carbonitrile] | < 5 | < 5
N#Cc1c(N)sc2c(F)ccc(-c3c(Cl)cc4c(N5CCCCC6(CN(C(=O)N7CCC(F)(F)C7)C6)C5)nc(OC[C@@]56CCCN5C[C@H](F)C6)nc4c3F)c12 [compound 292, 2-amino-4-(6-chloro-4-(2-(3,3-difluoropyrrolidine-1-carbonyl)-2,6-diazaspiro[3.6]decan-6-yl)-8-fluoro-2-(((2R,7aS)-2-fluorotetrahydro-1H-pyrrolizin-7a(5H)-yl)methoxy)quinazolin-7-yl)-7-fluorobenzo[b]thiophene-3-carbonitrile] | < 5 | < 5
N#Cc1c(N)sc2c(F)ccc(-c3c(Cl)cc4c(N5CCCCC6(CN(C(=O)c7ccnn7C(F)(F)F)C6)C5)nc(OC[C@@]56CCCN5C[C@H](F)C6)nc4c3F)c12 [compound 323, 2-amino-4-(6-chloro-8-fluoro-2-(((2R,7aS)-2-fluorotetrahydro-1H-pyrrolizin-7a(5H)-yl)methoxy)-4-(2-(1-(trifluoromethyl)-1H-pyrazole-5-carbonyl)-2,6-diazaspiro[3.6]decan-6-yl)quinazolin-7-yl)-7-fluorobenzo[b]thiophene-3-carbonitrile] | < 5 | < 5
N#Cc1c(N)sc2c(F)ccc(-c3c(Cl)cc4c(N5CCCCC6(CN(C(=O)CC7CC7(F)F)C6)C5)nc(OC[C@@]56CCCN5C[C@H](F)C6)nc4c3F)c12 (stereo partly drawn) [compound 235, 2-amino-4-(6-chloro-4-(2-(2-(2,2-difluorocyclopropyl)acetyl)-2,6-diazaspiro[3.6]decan-6-yl)-8-fluoro-2-(((2R,7aS)-2-fluorotetrahydro-1H-pyrrolizin-7a(5H)-yl)methoxy)quinazolin-7-yl)-7-fluorobenzo[b]thiophene-3-carbonitrile] | < 5 | < 5
N#Cc1c(N)sc2c(F)ccc(-c3c(Cl)cc4c(N5CCCCC6(CN(C(=O)C7CC8CCC7O8)C6)C5)nc(OC[C@@]56CCCN5C[C@H](F)C6)nc4c3F)c12 (stereo partly drawn) [compound 303, 4-(4-(2-(7-oxabicyclo[2.2.1]heptane-2-carbonyl)-2,6-diazaspiro[3.6]decan-6-yl)-6-chloro-8-fluoro-2-(((2R,7aS)-2-fluorotetrahydro-1H-pyrrolizin-7a(5H)-yl)methoxy)quinazolin-7-yl)-2-amino-7-fluorobenzo[b]thiophene-3-carbonitrile] | < 5 | < 5
N#Cc1c(N)sc2c(F)ccc(-c3c(Cl)cc4c(N5CCCCC6(CN(C(=O)C78CC(C#N)(C7)C8)C6)C5)nc(OC[C@@]56CCCN5C[C@H](F)C6)nc4c3F)c12 [compound 279, 2-amino-4-(6-chloro-4-(2-(3-cyanobicyclo[1.1.1]pentane-1-carbonyl)-2,6-diazaspiro[3.6]decan-6-yl)-8-fluoro-2-(((2R,7aS)-2-fluorotetrahydro-1H-pyrrolizin-7a(5H)-yl)methoxy)quinazolin-7-yl)-7-fluorobenzo[b]thiophene-3-carbonitrile] | < 5 | < 5
N#Cc1c(N)sc2c(F)ccc(-c3c(Cl)cc4c(N5CCCCC6(CN(C(=O)N7CC(C(F)F)C7)C6)C5)nc(OC[C@@]56CCCN5C[C@H](F)C6)nc4c3F)c12 [compound 196, 2-amino-4-(6-chloro-4-(2-(3-(difluoromethyl)azetidine-1-carbonyl)-2,6-diazaspiro[3.6]decan-6-yl)-8-fluoro-2-(((2R,7aS)-2-fluorotetrahydro-1H-pyrrolizin-7a(5H)-yl)methoxy)quinazolin-7-yl)-7-fluorobenzo[b]thiophene-3-carbonitrile] | < 5 | < 5
CC1(C)CN(c2nc(OC[C@@]34CCCN3C[C@H](F)C4)nc3c(F)c(-c4ccc(F)c5sc(N)c(C#N)c45)c(Cl)cc23)CC2(CNC2)O1 [compound 101, 2-amino-4-(6-chloro-4-(6,6-dimethyl-5-oxa-2,8-diazaspiro[3.5]nonan-8-yl)-8-fluoro-2-(((2R,7aS)-2-fluorotetrahydro-1H-pyrrolizin-7a(5H)-yl)methoxy)quinazolin-7-yl)-7-fluorobenzo[b]thiophene-3-carbonitrile] | < 5 | < 5
N#Cc1c(N)sc2c(F)ccc(-c3c(Cl)cc4c(N5CCCCC6(CN(C(=O)CC7(C#N)CC7)C6)C5)nc(OC[C@@]56CCCN5C[C@H](F)C6)nc4c3F)c12 [compound 280, 2-amino-4-(6-chloro-4-(2-(2-(1-cyanocyclopropyl)acetyl)-2,6-diazaspiro[3.6]decan-6-yl)-8-fluoro-2-(((2R,7aS)-2-fluorotetrahydro-1H-pyrrolizin-7a(5H)-yl)methoxy)quinazolin-7-yl)-7-fluorobenzo[b]thiophene-3-carbonitrile] | < 5 | < 5
